Reference: patent US4786638A, “2,4-disubstituted-5-cyano-1,6-dihydro-6-oxo-1-pyrimidineacetic acid aldose reductase inhibitors” (American Home Products Corporation, priority 1987, dated 1988)

Legend:
[1] = tested on: galactitol accumulation in the tissues of the lens, sciatic nerve, and diaphragm; test: Galactosemic rats: lowering of dulcitol (galactitol) accumulation in lens, sciatic nerve and diaphragm; type: in vivo, Male Sprague-Dawley rats; details: 20% galactose diet, mg/kg by Example: 1:90, 2:128, 3:141, 4:93, 5:121, 6:110, 7:123, 8:87, 9:92, 10:102, 11:71, 12:84, 13:93, 14:112, 16:100, 17:100, 18:128, 19:117, 20:140, 21:103, 22:151, tolrestat:6
Procedure: Such experiments are exemplified hereinbelow after the listing of the following general comments pertaining to these experiments:
Male Sprague-Dawley rats, weighing approximately 90 grams were separated into groups of equal average body weight, with six animals per group. The animals were housed in cages of six animals each and maintained on 12 hour night/12 hour day cycles. Except as otherwise noted, the animals were given food and water ad libitum.
On day 1, the galactosemic control group and all drug-treated groups were given access to 20% galactose chow (Bio-Serv, Frenchtown, N.J.). Animals in the control group were given access to 20% glucose chow (Bio-Serv). Test compounds were administered either in the diet or by gavage as a suspension in 2% Tween 80 in saline. In experiments in which gavage dosing was used, the animals were administered the test compound daily at approximately the same hour each day. Food intake and body weight were determined twice during the course of the experiment. In cases in which the compound was administered in the diet, the average dose was calculated on the basis of the actual average food intake during the experiment.
On the morning of day 5, all animals were fasted; beginning two hours later the animals were decapitated and the lenses, sciatic nerves, and a 50-100 mg portion of the diaphragm were removed, weighed, and frozen in porcelain plates on dry ice.
Only two minor reagent changes were made: (a) the rinsing mixture was an aqueous 5% (w/v) trichloroacetic acid solution and (b) the stock solution was prepared by dissolving 25 mg of dulcitol in 100 mL of an aqueous trichloroacetic acid solution [N.B.: For each experiment the average value found in the tissue from rats fed the glucose diet was subtracted from the individual values found in the corresponding tissue in galactose-fed rats to obtain the amount of polyol accumulated.]
The figures under L, N and D represent the percentage decrease of galactitol accumulation in the tissues of the lens, sciatic nerve, and diaphragm, respectively for treated rats as compared to untreated rats.

[2] = tested on: aldose reductase; details: reported by K. Sestanj et al., U.S. Pat. No. 4,568,693; cited from earlier work

Structure (SMILES): COc1ccc2c(C(=S)N(C)CC(=O)O)cccc2c1C(F)(F)F [tolrestat, N-[[6-methoxy-5-(trifluoromethyl)-1-naphthalenyl]-thioxomethyl]-N-methylglycine, reference compound]
- % Lowering dulcitol accumulation IN VIVO, D ([1]; diaphragm): 90%
- % Lowering dulcitol accumulation IN VIVO, L ([1]; lens): N.S.
- inhibitor of aldose reductase (in words) [2]: effective inhibitor of aldose reductase
